pEC50: −log10 of the molar value.
What was measured:
HCV GT1a replicon cells = test: HCV replicon assay, GT1a replicon cells (luciferase reporter / NEO gene qPCR); format: cell-based; settings: Hepatitis C virus, GT1A, EC50 range against HCV 1a genotype, 72 hours incubation
Method: (§1) An HCV Replicon assay was utilized in the present disclosure, and was prepared, developed and validated as described in Science, 1999, 285 (5424), 110-3 and J. Virol., 2003, 77 (5), 3007-19.
(§2) HCV GT1a, GT1b and GT2a replicon cells were used to test the currently described compound series as well as wild-type cells HCV 1b and resistant cells Y93H, L31F, P32L and 1302V. GT1a, GT1b and GT2a are HCV Replicon System which is transfected HCV 1a, 1b, 2a genotype respectively. The system containing G418 resistance gene NEO and Luciferase Reporter Gene can be used to determine the level of HCV replication, and evaluate the effects of the compounds inhibiting HCV replication, by using a real-time quantitative polymerase chain reaction (qPCR) method to detect NEO, and chemiluminescence method to test Luciferase Reporter Gene.
(§3) 1. Testing EC50 of the Compounds by Luciferase Assay
(§4) The GT1a cells and GT1b cells were seeded into 96-well plates (8,000 cells in 125 μl/well) respectively; each compound was diluted to desired concentration using 5-fold serial dilutions protocol, 10 dose in duplicate, and added to wells with POD™ 810 Plate Assembler. The final concentration of DMSO was 0.5%; the plates were incubated in a CO2 incubator for 72 hours; after that, 40 μl of Luciferase assay substrate (Promega Bright-Glo) was added to each well, and detected by a chemiluminescence detection system (Topcount Microplate Scintillation and Luminescence Counter) 5 minutes later; data analysis.
(§5) 2. Testing EC50 of the Compounds by Detecting Antibiotic G418 Resistance Gene NEO Gene
(§6) The GT1a cells and GT1b cells were seeded into 96-well plates (8,000 cells in 125 μl/well) respectively; each compound was diluted to desired concentration using 5-fold serial dilutions protocol, 10 dose in duplicate, and added to wells with POD™ 810 Plate Assembler, the final concentration of DMSO was 0.5%; the cells were incubated in a CO2 incubator for 72 hours; quantitative PCR. • Sample preparation: the supernatant was removed, 100 μl of FCW buffer solution was added to each well, washed carefully and discarded the solution; 50 μl of lysate FCP was added to each well, the cells was lysed as PCR template and PCR template was diluted with DEPC water as sample template. • Quantitative PCR: preparation of reaction mixture according to PCR system; the reaction mixture was dispensed into a 384-well PCR reaction plate (specially for quantitative); and a standard template which was diluted in proportion was distributed into the plate; and the sample template was distributed into the plate; then the 384-well plate was sealed with closure plate membrane; the […] PCR machine was operated by procedures; data analysis.
(§7) 3. Data processing: EC50 values of compounds were analyzed by GRAPHPAD PRISM® software.

HCV GT1b replicon cells = test: HCV replicon assay, GT1b replicon cells (luciferase reporter / NEO gene qPCR); format: cell-based; settings: Hepatitis C virus, GT1B, 72 h, EC50 range against HCV 1b genotype, 72 hours incubation
Method: as §1, §2, §3, §4, §5, §6, §7

SMILES	pEC50 (HCV GT1a replicon cells)	pEC50 (HCV GT1b replicon cells)
COC(=O)N[C@H](C(=O)N1CCCC[C@H]1c1ncc(-c2ccc(-c3ccc(-c4cnc([C@@H]5CCCCN5C(=O)[C@@H](NC(=O)OC)C(C)C)[nH]4)c4c3CC3(CCCC3)C4)cc2)[nH]1)C(C)C [Example 45]	10.00 to 12.00	< 8.00
COC(=O)N[C@H](C(=O)N1CCC[C@H]1c1ncc(-c2ccc3cc(-c4ccc(-c5cnc([C@@H]6CCCN6C(=O)[C@@H](NC(=O)OC)C(C)C)[nH]5)c5c4CC4(CCCCC4)C5)ccc3c2)[nH]1)C(C)C [Example 49]	10.00 to 12.00	8.00 to 9.00
COC(=O)N[C@H](C(=O)N1CCC[C@H]1c1ncc(-c2ccc(-c3ccc(-c4cnc([C@@H]5CCCN5C(=O)[C@@H](NC(=O)OC)C(C)C)[nH]4)c4c3CC3(CCCCC3)C4)cc2)[nH]1)C(C)C [Example 50]	10.00 to 12.00	8.00 to 9.00
COC(=O)NC(C(=O)N1CC2(C[C@H]1c1ncc(-c3ccc(-c4ccc(-c5cnc([C@@H]6CCCN6C(=O)[C@@H](NC(=O)OC)C(C)C)[nH]5)c5c4CC4(CCCC4)C5)cc3)[nH]1)OCCO2)C(C)C (stereo partly drawn) [Example 51]	10.00 to 12.00	< 8.00
COC(=O)N[C@H](C(=O)N1C(c2ncc(-c3ccc(-c4ccc(-c5ccc6nc([C@@H]7CC8CC8N7C(=O)[C@@H](NC(=O)OC)C(C)C)[nH]c6c5)c5c4CC4(CCCC4)C5)cc3)[nH]2)CC2CC21)C(C)C (stereo partly drawn) [Example 54]	10.00 to 12.00	9.00 to 10.00
COC(=O)N[C@H](C(=O)N1CCCC1C(=O)Nc1cccc(-c2ccc(-c3ccc(-c4cnc([C@@H]5CCCN5C(=O)[C@@H](NC(=O)OC)C(C)C)[nH]4)cc3)c3c2CC2(CCCC2)C3)c1)C(C)C (stereo partly drawn) [Example 56]	10.00 to 12.00	8.00 to 9.00
